Here are results for five compounds from ChEMBL document CHEMBL1137538, “Natural triterpenoids from Cecropia lyratiloba are cytotoxic to both sensitive and multidrug resistant leukemia cell lines” (Bioorg Med Chem, 2007).

Broadly, the pIC50 is the IC50 on a negative log10 scale, so that one unit is a factor of ten.

Molecules are shown by their SMILES. pIC50: −log10 of the molar value.

The test system of assay [1] is K562. The experiment in a line: Cytotoxicity against human K562 cells assessed as cell viability after 48 hrs by MTT assay. The assay is classed as functional, cell-based. The conditions noted are these: K562, 48 h. Background: Tetrazolium assays rely on reduction of a dye to a coloured formazan, in cell work by metabolically active cells.
Assay [2] in a line: Cytotoxicity against human multidrug resistant Lucena1 cells assessed as cell viability after 48 hrs by MTT assay. The assay is classed as functional, cell-based. Conditions: Lucena 1, 48 h.
Assay [3] deals with HEp-2. The experiment in a line: Cytotoxicity against human HEp2 cells assessed as cell viability. The assay is classed as functional, cell-based.
In assay [4] the test system is Caco-2. The experiment in a line: Cytotoxicity against human Caco-2 cells assessed as cell viability. The assay is classed as functional, cell-based.
The subject of assay [5] is A549. Description: Cytotoxicity against human A549 cells assessed as cell viability. The assay is classed as functional, cell-based.
Assay [6] deals with K562. The experiment in a line: Induction of apoptosis in human K562 cells assessed as DNA fragmentation at 10 ug/mL by FACS analysis. The assay is classed as functional. For orientation: In flow cytometry, cells or beads pass a laser one at a time.
Assay [7] has as its system K562. Description: Induction of apoptosis in human K562 cells assessed as DNA fragmentation at 25 ug/mL by FACS analysis. The assay is classed as functional.
The subject of assay [8] is K562. Description: Induction of apoptosis in human K562 cells assessed as DNA fragmentation at 50 ug/mL by FACS analysis. The assay is classed as functional.
Assay [9] in a line: Induction of apoptosis in human multidrug resistant Lucena1 cells assessed as DNA fragmentation at 10 ug/mL by FACS analysis. The assay is classed as functional.
Assay [10] is described as follows: Induction of apoptosis in human multidrug resistant Lucena1 cells assessed as DNA fragmentation at 25 ug/mL by FACS analysis. The assay is classed as functional.
Assay [11] can be described thus: Induction of apoptosis in human multidrug resistant Lucena1 cells assessed as DNA fragmentation at 50 ug/mL by FACS analysis. The assay is classed as functional.
The subject of assay [12] is K562. The experiment in a line: Activation of caspase 3 in human K562 cells at 50 ug/mL after 4 hrs by flow cytometry. The assay is classed as functional.
Assay [13] has as its system K562. The experiment in a line: Activation of caspase 3 in human K562 cells at 50 ug/mL after 8 hrs by flow cytometry. The assay is classed as functional.
Assay [14] concerns K562. Description: Activation of caspase 3 in human K562 cells at 50 ug/mL after 12 hrs by flow cytometry. The assay is classed as functional.
Assay [15] concerns K562. Description: Activation of caspase 3 in human K562 cells at 50 ug/mL after 24 hrs by flow cytometry. The assay is classed as functional.

As to `C[C@@H]1CC[C@]2(C(=O)O)CC[C@]3(C)C(=CC[C@@H]4[C@@]5(C)C[C@@H](O)[C@H](O)C(C)(C)[C@@H]5CC[C@]43C)[C@@H]2[C@]1(C)O` [TOMENTIC ACID], the results for the pIC50 in [1] and in assay [2] were 4.05 and 4.10, respectively.
Regarding `C[C@@H]1CC[C@]2(C(=O)O)CC[C@]3(C)C(=CC[C@@H]4[C@@]5(C)C[C@@H](O)[C@@H](O)C(C)(C)[C@@H]5CC[C@]43C)[C@@H]2[C@]1(C)O` [EUSCAPHIC ACID], the pIC50 was 4.12 in assay [1]; 4.08 in assay [2]; 3.98 in assay [3]; 3.98 in assay [4]; 4.02 in assay [5]. The Activity in assay [6] was determined as 13.58%; in assay [7] it was 27.75%; in assay [8], 62.93%; in assay [9], 10.48%; in [10] it was 30.87%; in [11], 63.57%. Besides, the Activity came out at 8.04% in assay [12], 13.87% in [13], 18.69% in assay [14] and 36.33% in assay [15].
On to `CC[C@]1(O)C[C@H]2CN(CCc3c([nH]c4ccccc34)[C@@](C(=O)OC)(c3cc4c(cc3OC)N(C=O)[C@H]3[C@@](O)(C(=O)OC)[C@H](OC(C)=O)[C@]5(CC)C=CCN6CC[C@]43[C@@H]65)C2)C1` [VINCRISTINE], for which the results for the negative logarithm of the IC50 (pIC50) in assay [1] and in assay [2] were 8.22 and < 7.00, respectively.
Take `CC(=O)O[C@H]1[C@H](O)C[C@]2(C)[C@H]3CC=C4[C@H]5[C@](C(=O)O)(CC[C@@H](C)[C@@]5(C)O)CC[C@@]4(C)[C@]3(C)CC[C@H]2C1(C)C`: the pIC50 was 4.25 in [1] and 4.14 in [2].
In the case of `CC(=O)O[C@@H]1C[C@]2(C)[C@H]3CC=C4[C@H]5[C@](C(=O)O)(CC[C@@H](C)[C@@]5(C)O)CC[C@@]4(C)[C@]3(C)CC[C@H]2C(C)(C)[C@H]1O`, the pIC50 in assay [1] is 4.42; in [2], 4.38.
